The target of the first experiment is T1, P2X7 receptor (Homo sapiens, UniProt Q99572).
T1 construct: host or cells: SH-SY5Y
T1 sequence (Q99572 1-595): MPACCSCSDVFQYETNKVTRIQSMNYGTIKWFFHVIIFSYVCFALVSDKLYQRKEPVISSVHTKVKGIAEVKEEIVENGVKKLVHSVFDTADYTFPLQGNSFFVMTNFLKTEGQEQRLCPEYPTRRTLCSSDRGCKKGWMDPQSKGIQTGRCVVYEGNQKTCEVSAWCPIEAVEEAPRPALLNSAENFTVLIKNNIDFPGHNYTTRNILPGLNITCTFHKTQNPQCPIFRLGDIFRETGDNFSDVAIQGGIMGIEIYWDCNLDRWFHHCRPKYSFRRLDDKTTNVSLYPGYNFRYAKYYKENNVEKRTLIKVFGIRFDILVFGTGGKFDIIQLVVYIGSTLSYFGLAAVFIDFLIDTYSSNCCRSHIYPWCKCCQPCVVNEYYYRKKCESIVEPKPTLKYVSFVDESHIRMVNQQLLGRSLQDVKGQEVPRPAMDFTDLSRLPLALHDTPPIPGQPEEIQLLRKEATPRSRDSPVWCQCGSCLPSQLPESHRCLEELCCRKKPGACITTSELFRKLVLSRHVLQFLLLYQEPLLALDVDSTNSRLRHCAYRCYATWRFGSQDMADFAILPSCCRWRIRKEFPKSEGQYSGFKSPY
Kind of experiment: P2X7 calcium mobilization assay, high throughput, antagonist activity (Example 4A). It counts as cell-based.
Details: not given
In outline:
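Cells plated 100,000/well the day before; after 1 h dye loading and one rinse, cells were preincubated 1 h at room temperature with test compound. Calcium mobilization then read on FLIPR^TETRA; maximum RFU corrected by subtracting mean no-agonist response and referenced to mean agonist-control maximum.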
In general terms: Calcium assays in cells follow changes in intracellular calcium, usually with a dye or a luminescent sensor.
For the compound `NCCNCc1cn2c(C(=O)NCC34CC5CC(CC(C5)C3)C4)cccc2n1` [Compound 122, N-(adamantan-1-ylmethyl)-2-{[(2-aminoethyl)amino]methyl}imi-dazo[1,2-a]pyridine-5-carboxamide], the IC50 (commonly the concentration at which inhibition is half-maximal) was under 2000 nM.
Regarding `O=C(NCC12CC3CC(CC(C3)C1)C2)c1cccc2nc(CNCCN3CCCC3)cn12` [Compound 126, N-(adamantan-1-ylmethyl)-2-{[(2-pyrrolidin-1-ylethyl)amino]methyl}imi-dazo[1,2-a]pyridine-5-carboxamide], the IC50 was under 2000 nM.

The same experiment, now with this note: 50% decrease in the fluorescence response of cells exposed to 80 μM 2′(3′)-O-(4-benzoyl-benzoyl)adenosine 5′-triphosphate; Example 4A; read-out: IC50.
Turning to `Cn1ccnc1SCc1cn2c(C(=O)NCC34CC5CC(CC(C5)C3)C4)cccc2n1` [Compound 530, N-(adamantan-1-ylmethyl)-2-{[(1-methyl-1H-imidazol-2-yl)thio]methyl}imidazo [1,2-a]pyridine-5-carboxamide], the IC50 is under 2000 nM.
The same measure, in the same setting: the value for `CC(C)[C@@H]1CN(C(=O)c2cn3c(C(=O)NCC45CC6CC(CC(C6)C4)C5)cccc3n2)CCN1` [Compound 614, N-(adamantan-1-ylmethyl)-2-{[(3R)-3-isopropylpiperazin-1-yl]carbonyl}imidazo[1,2-a]pyridine-5-carboxamide] was under 2000 nM.
The same measure, in the same setting: as for `CC(C)CNC(=O)c1cn2c(C(=O)NC[C@@H]3CC[C@H]4C[C@@H]3C4(C)C)cccc2n1` [Compound 496, 5-N-{[(1S,2R,5S)-6,6-dimethylbicyclo[3.1.1]hept-2-yl]methyl}-2-N-isobutylimidazo[1,2-a]pyridine-2,5-dicarboxamide], the figure is under 2000 nM; as for `CN(CCC(C)(C)O)C(=O)c1cn2c(NC(=O)CC34CC5CC(CC(C5)C3)C4)cccc2n1` [Compound 431, 5-[(adamantan-1-ylacetyl)amino]-N-(3-hydroxy-3-methylbutyl)-N-methylimidazo[1,2-a]pyridine-2-carboxamide], under 2000 nM.

The experiment is the same for the next values; noted with them: 50% decrease in the fluorescence response of cells exposed to 80 μM of 2′(3′)-O-(4-benzoyl-benzoyl)adenosine 5′-triphosphate; Example 4A; read-out: IC50.
As for `CCN(Cc1ccc(C2=NCCN2)cc1)C(=O)c1cn2c(C(=O)NCC34CC5CC(CC(C5)C3)C4)cccc2n1` [Compound 715, 5-N-(adamantan-1-ylmethyl)-2-N-[4-(4,5-dihydro-1H-imidazol-2-yl)benzyl]-2-N-ethylimidazo[1,2-a]pyridine-2,5-dicarboxamioe], the IC50 is under 2000 nM.
Still for that read-out and setting: as for `CC(C#N)c1cn2c(C(=O)NCC34CC5CC(CC(C5)C3)C4)cccc2n1` (stereo not drawn) [Compound 761, N-(adamantan-1-ylmethyl)-2-(1-cyanoethyl)imidazo [1,2-a]pyridine-5-carboxamide], the figure is under 2000 nM; as for `CN1CCCC1CCNC(=O)c1cn2c(C(=O)NCC34CC5CC(CC(C5)C3)C4)cccc2n1` (stereo not drawn) [Compound 649, 5-N-(adamantan-1-ylmethyl)-2-N-[2-(1-methylpyrrolidin-2-yl)ethyl]imidazo[1,2-a]pyridine-2,5-dicarboxamide], under 2000 nM; as for `CC(C)CC(CNC(=O)c1cccc2nc(CC(=O)N3CCSCC3)cn12)c1ccc(Cl)cc1` (stereo not drawn) [Compound 798, N-[2-(4-chlorophenyl)-4-methylpentyl]-2-(2-oxo-2-thiomorpholin-4-ylethyl)imidazo[1,2-a] pyridine-5-carboxamide], under 2000 nM.
On the same count and under the same terms, the value for `CCOC(=O)C(Cc1cn2c(C(=O)NCC34CC5CC(CC(C5)C3)C4)cccc2n1)c1cccnc1` (stereo not drawn) [Compound 759, ethyl 3-{5-[(adamantan-1-ylmethyl)carbamoyl]imidazo[1,2-a]pyridin-2-yl}-2-pyridin-3-ylpropanoate] was under 2000 nM.
On the same count and under the same terms, the value for `CN(C)[C@@H]1CCN(C(=O)CCc2cn3c(C(=O)NCC45CC6CC(CC(C6)C4)C5)cccc3n2)C1` [Compound 753, N-(adamantan-1-ylmethyl)-2-{3-[(3R)-3-(dimethylamino)pyrrolidin-1-yl]-3-oxopropyl}imidazo [1,2-a)pyridine-5-carboxamide] was under 2000 nM.

The same experiment, now with this note: 50% decrease in the fluorescence response of cells exposed to 80 μM of 2′(3′)-O-(4-benzoyl-benzoyl)adenosine 5′-triphosphate; determined as in Example 4A; read-out: IC50.
Turning to `CCOC(=O)C(Cc1ccccc1Cl)c1cn2c(C(=O)NCC34CC5CC(CC(C5)C3)C4)cccc2n1` (stereo not drawn) [Compound 840, ethyl 2-{5-[(adamantan-1-ylmethyl)carbamoyl]imidazo[1,2-a]pyridin-2-yl}-3-(2-chlorophenyl) propanoate], the IC50 is under 2000 nM.
On the same count and under the same terms, the value for `CC(C)CC(CNC(=O)c1cccc2nc(CC(=O)N[C@@H]3CCN(C(=O)OC(C)(C)C)C3)cn12)c1ccc(Cl)cc1` (stereo partly drawn) [Compound 967, tert-butyl 3-{[(5-{[2-(4-chlorophenyl)-4-methylpentyl]carbamoyl}imidazo[1,2-a]pyridin-2-yl)acetyl]amino} pyrrolidine-1-carboxylate] was under 2000 nM; that for `O=C(NCC1(c2ccc(C(F)(F)F)cc2)CCCCC1)c1cccc2nc(CC(=O)N3CCn4cncc4C3)cn12` [Compound 879, 2-[2-(5,6-dihydroimidazo[1,5-a]pyrazin-7(8H)-yl)-2-oxoethyl]-N-({1-[4-(trifluoromethyl)phenyl]cyclohexyl}methyl) imidazo[1,2-a] pyridine-5-carboxamide] was under 2000 nM.

Still in this experiment, the particulars now being: SH-SY5Y cells; 50% decrease in fluorescence response to 80 μM BzATP; read-out: IC50.
With `CS(=O)(=O)N1CCN(C(=O)c2cn3c(C(=O)NCC45CC6CC(CC(C6)C4)C5)cccc3n2)CC1` [Compound 97, N-(adamantan-1-ylmethyl)-2-{[4-(methyl-sulfonyl)piperazin-1-yl]carbonyl}imidazo[1,2-a]pyridine-5-carboxamide], the IC50 was under 2000 nM.
The same measure, in the same setting: the value for `O=C(NCC12CC3CC(CC(C3)C1)C2)c1cccc2nc(CC(=O)N3CCN(C4CCC4)CC3)cn12` [Compound 179, N-(adamantan-1-ylmethyl)-2-[2-(4-cyclobutylpiperazin-1-yl)-2-oxoethyl]imidazo[1,2-a]pyridine-5-carboxamide] was under 2000 nM.
As for `CCN(C)C(=O)Cc1cn2c(C(=O)NCC34CC5CC(CC(C5)C3)C4)cccc2n1` [Compound 168, N-(adamantan-1-ylmethyl)-2-{2-[ethyl(methyl)amino]-2-oxoethyl}imidazo[1,2-a]pyridine-5-carboxamide], the IC50 was under 2000 nM.
The same measure, in the same setting: as for `CN(CCO)C(=O)c1cn2c(C(=O)NCC34CC5CC(CC(C5)C3)C4)cccc2n1` [Compound 9, 5-N-(adamantan-1-ylmethyl)--(2-hydroxyethyl)-- methylimidazo[1,2-a]pyridine-2,5-dicarboxamide], the figure is under 2000 nM; as for `CN(CCC(C)(C)O)C(=O)Cc1cn2c(C(=O)NCC34CC5CC(CC(C5)C3)C4)cccc2n1` [Compound 58, N-(adamantan-1-ylmethyl)-2-{2-[(3-hydroxy-3-methyl-butyl)(methyl)amino]-2-oxoethyl}imidazo[1,2-a]pyridine-5-carboxamide], under 2000 nM.
On the same count and under the same terms, as for `COC1CCCN(C(=O)c2cn3c(C(=O)NCC45CC6CC(CC(C6)C4)C5)cccc3n2)C1` (stereo not drawn) [Compound 100, N-(adamantan-1-ylmethyl)-2-[(3-methoxypiperidin-1-yl)carbonyl]imidazo[1,2-a]pyridine-5-carboxamide], the figure is under 2000 nM.

Still in this experiment, the particulars now being: fluorescence response of cells exposed to 80 μM 2′(3′)-O-(4-benzoyl-benzoyl)adenosine 5′-triphosphate; Example 4A; read-out: IC50.
As to `CC1(C)[C@H]2CC[C@@H](CNC(=O)c3cccc4nc(C(=O)N5CCCC(N)C5)cn34)[C@@H]1C2` (stereo partly drawn) [Compound 325, 2-[(3-aminopiperidin-1-yl)carbonyl]-N-{[(1S,2R,5S)-6,6-dimethylbicyclo[3.1.1]hept-2-yl]methyl}imidazo[1,2-a]pyridine-5-carboxamide], the IC50 is under 2000 nM.
The same measure, in the same setting: as for `CC1(C)[C@H]2CC[C@@H](CNC(=O)c3cccc4nc(C(=O)N5CCOC(CN)C5)cn34)[C@@H]1C2` (stereo partly drawn) [Compound 336, 2-{[2-(aminomethyl)morpholin-4-yl]carbonyl}-N-{[(1S,2R,5S)-6,6-dimethylbicyclo[3.1.1]hept-2-yl]methyl}imidazo[1,2-a]pyridine-5-carboxamide], the figure is under 2000 nM; as for `O=C(CC12CC3CC(CC(C3)C1)C2)Nc1cccc2nc(C(=O)N(CCO)C3CCCCC3)cn12` [Compound 407, 5-[(adamantan-1-ylacetyl)amino]-N-cyclohexyl-N-(2-hydroxyethyl)imidazo [1,2-a]pyridine-2-carboxamide], under 2000 nM.
The same measure, in the same setting: the value for `Cc1cc(-c2cn3c(C(=O)NCC45CC6CC(CC(C6)C4)C5)cccc3n2)n[nH]1` [Compound 284, N-(adamantan-1-ylmethyl)-2-(5-methyl-1H-pyrazol-3-yl)imidazo[1,2-a]pyridine-5-carboxamide] was under 2000 nM; that for `O=C(CC12CC3CC(CC(C3)C1)C2)Nc1cccc2nc(C(=O)N3CCCCC3CO)cn12` (stereo not drawn) [Compound 415, 2-adamantan-1-yl-N-(2-{[2-(hydroxymethyl)piperidin-1-yl]carbonyl}imidazo[1,2-a]pyridin-5-yl)acetamide] was under 2000 nM; that for `CCOC(=O)Cc1cn2c(C(=O)NC(C)C34CC5CC(CC(C5)C3)C4)cccc2n1` (stereo not drawn) [Compound 281, ethyl {5-[(1-adamantan-1-ylethyl)carbamoyl]imidazo[1,2-a]pyridin-2-yl}acetate] was under 2000 nM.
